Reference: PMC7269503 (Antimicrobial Agents and Chemotherapy, 2020)
pIC50: −log10 of the molar value. Values after ≈ are worked out from the molar mass of the structure shown. Read-outs that look alike come from different tables or passages of the source.

How the values were obtained:
[1] = system: M. tuberculosis ATCC 35838 (H37Rv RIF-R); assay: MIC by agar proportion method, standard strain; format: cell-based; details: Mycobacterium tuberculosis
[2] = system: M. pinnipedii ATCC BAA-688; assay: MIC by agar proportion method, standard strain; format: cell-based; details: ATCCBAA688
M. bovis ATCC BAA-935 = assay: microbe, parasite or virus in culture; format: cell-based; details: Mycobacterium tuberculosis variant bovis, ATCCBAA935
[3] = system: M. tuberculosis ATCC 35822 (H37Rv INH-R); assay: MIC by agar proportion method, standard strain; format: cell-based; details: Mycobacterium tuberculosis
M. caprae ATCC BAA-824 = assay: MIC by agar proportion method, standard strain; format: cell-based; details: ATCCBAA824
[4] = system: M. tuberculosis ATCC 35837 (H37Rv EMB-R); assay: MIC by agar proportion method, standard strain; format: cell-based; details: Mycobacterium tuberculosis
M. microti ATCC 11152 = assay: MIC by agar proportion method, standard strain; format: cell-based; details: ATCC11152
[5] = system: M. tuberculosis ATCC 35828 (H37Rv PZA-R); assay: MIC by agar proportion method, standard strain; format: cell-based; details: Mycobacterium tuberculosis
[6] = system: M. tuberculosis ATCC 35820 (H37Rv SM-R); assay: MIC by agar proportion method, standard strain; format: cell-based; details: Mycobacterium tuberculosis
[7] = system: M. tuberculosis ATCC 27294 (H37Rv); assay: MIC by agar proportion method, standard strain; format: cell-based; details: Mycobacterium tuberculosis
[8] = system: M. tuberculosis ATCC 35812 (Kurono); assay: MIC by agar proportion method, standard strain; format: cell-based; details: Mycobacterium tuberculosis, ATCC35812
M. africanum ATCC 25420 = assay: MIC by agar proportion method, standard strain; format: cell-based; details: ATCC25420
M. tuberculosis Kurono = format: in vivo; details: in vivo
[9] = target: recombinant M. bovis BCG-derived DprE1 (Mycobacterium tuberculosis, UniProt P9WJF1); assay: biochemical
[10] = system: intracellular M. tuberculosis H37Rv; assay: microbe, parasite or virus in culture; format: cell-based
[11] = system: intracellular M. tuberculosis Kurono; assay: microbe, parasite or virus in culture; format: cell-based
[12] = […], agar proportion method, read-out: MIC
[13] = M. pinnipedii ATCC BAA-688, agar proportion method, read-out: MIC
[14] = M. caprae ATCC BAA-824, agar proportion method, read-out: MIC
[15] = M. microti ATCC 11152, agar proportion method, read-out: MIC
[16] = ATCC 27294 (H37Rv), agar proportion method, […], read-out: MIC
[17] = ATCC 35812 (Kurono), agar proportion method, read-out: MIC
[18] = M. africanum ATCC 25420, agar proportion method, read-out: MIC

recombinant M. bovis BCG-derived DprE1, sequence (P9WJF1 whole entry): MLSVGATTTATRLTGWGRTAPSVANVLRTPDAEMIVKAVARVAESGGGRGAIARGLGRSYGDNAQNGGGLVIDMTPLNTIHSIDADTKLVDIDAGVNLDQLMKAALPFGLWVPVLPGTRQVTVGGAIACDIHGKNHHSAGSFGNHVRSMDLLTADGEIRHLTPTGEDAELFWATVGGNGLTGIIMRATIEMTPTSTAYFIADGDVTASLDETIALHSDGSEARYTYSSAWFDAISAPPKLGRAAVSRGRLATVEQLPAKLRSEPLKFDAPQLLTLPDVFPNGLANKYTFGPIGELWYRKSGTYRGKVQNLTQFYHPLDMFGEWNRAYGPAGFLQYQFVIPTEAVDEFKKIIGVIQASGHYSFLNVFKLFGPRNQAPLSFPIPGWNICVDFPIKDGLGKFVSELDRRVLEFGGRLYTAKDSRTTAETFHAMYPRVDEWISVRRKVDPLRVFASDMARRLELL

Work on COc1nc2ccc(Br)cc2cc1[C@@H](c1ccccc1)[C@@](O)(CCN(C)C)c1cccc2ccccc12 [BDQ, bedaquiline] yielded an MIC [1, 12] of 0.063 µg/mL (≈ 0.113 µM), an MIC [2, 13] of 0.13 µg/mL (≈ 0.234 µM) and an MIC (M. bovis ATCC BAA-935) of 0.13 µg/mL (≈ 0.234 µM). It also gave an MIC [3, 12] of 0.063 µg/mL (≈ 0.113 µM), an MIC (M. caprae ATCC BAA-824; [14]) of 0.13 µg/mL (≈ 0.234 µM) and an MIC [4, 12] of 0.063 µg/mL (≈ 0.113 µM). It also gave an MIC (M. microti ATCC 11152; [15]) of 0.063 µg/mL (≈ 0.113 µM), an MIC [5, 12] of 0.13 µg/mL (≈ 0.234 µM) and an MIC [6, 12] of 0.063 µg/mL (≈ 0.113 µM). It also gave an MIC [7, 16] of 0.063 µg/mL (≈ 0.113 µM), an MIC [8, 17] of 0.063 µg/mL (≈ 0.113 µM) and an MIC (M. africanum ATCC 25420; [18]) of 0.25 µg/mL (≈ 0.45 µM). For the same compound, the “lung CFU compared to the vehicle group, single agent” value (M. tuberculosis Kurono) was “significant decrease of lung CFU”.

C[C@H]1COC2(CCN(c3nc(=O)c4cc(C(F)(F)F)cc([N+](=O)[O-])c4s3)CC2)O1 [BTZ043] was tested, and the pIC50 [9] was 6.39.

For C[C@]1(COc2ccc(N3CCC(Oc4ccc(OC(F)(F)F)cc4)CC3)cc2)Cn2cc([N+](=O)[O-])nc2O1 [DMD, delamanid], the MIC [1, 12] was 0.004 µg/mL (≈ 0.00748 µM), the MIC [2, 13] was 0.002 µg/mL (≈ 0.00374 µM) and the MIC (M. bovis ATCC BAA-935) was 0.004 µg/mL (≈ 0.00748 µM). It also gave an MIC [3, 12] of 0.004 µg/mL (≈ 0.00748 µM), an MIC (M. caprae ATCC BAA-824; [14]) of 0.002 µg/mL (≈ 0.00374 µM) and an MIC [4, 12] of 0.004 µg/mL (≈ 0.00748 µM). It also gave an MIC (M. microti ATCC 11152; [15]) of 0.002 µg/mL (≈ 0.00374 µM), an MIC [5, 12] of 0.004 µg/mL (≈ 0.00748 µM) and an MIC [6, 12] of 0.004 µg/mL (≈ 0.00748 µM). The MIC [7, 16] was 0.004 µg/mL (≈ 0.00748 µM), the MIC [8, 17] was 0.004 µg/mL (≈ 0.00748 µM) and the MIC (M. africanum ATCC 25420; [18]) was 0.001 µg/mL (≈ 0.00187 µM). The “lung CFU compared to the vehicle group, single agent” value (M. tuberculosis Kurono) was “significant decrease of lung CFU”.

In the case of NNC(=O)c1ccncc1 [INH, isoniazid], the pIC50 [9] was < 5.00.

With C[C@H]1COc2c(N3CCN(C)CC3)c(F)cc3c(=O)c(C(=O)O)cn1c23 [LVX, levofloxacin] the MIC [1, 12] was 0.5 µg/mL (≈ 1.38 µM), the MIC [2, 13] was 0.25 µg/mL (≈ 0.692 µM) and the MIC (M. bovis ATCC BAA-935) was 0.25 µg/mL (≈ 0.692 µM). For the same compound, the MIC [3, 12] was 0.5 µg/mL (≈ 1.38 µM), the MIC (M. caprae ATCC BAA-824; [14]) was 0.25 µg/mL (≈ 0.692 µM) and the MIC [4, 12] was 0.5 µg/mL (≈ 1.38 µM). For the same compound, the MIC (M. microti ATCC 11152; [15]) was 0.25 µg/mL (≈ 0.692 µM), the MIC [5, 12] was 0.5 µg/mL (≈ 1.38 µM) and the MIC [6, 12] was 0.5 µg/mL (≈ 1.38 µM). It also gave an MIC [7, 16] of 0.5 µg/mL (≈ 1.38 µM), an MIC [8, 17] of 0.5 µg/mL (≈ 1.38 µM) and an MIC (M. africanum ATCC 25420; [18]) of 0.25 µg/mL (≈ 0.692 µM). For the same compound, the “lung CFU compared to the vehicle group, single agent” value (M. tuberculosis Kurono) was “significant decrease of lung CFU”.

In the case of CC(=O)NC[C@H]1CN(c2ccc(N3CCOCC3)c(F)c2)C(=O)O1 [LZD, linezolid], the MIC [1] was 0.5 µg/mL (≈ 1.48 µM), the MIC [2] was 1 µg/mL (≈ 2.96 µM) and the MIC (M. bovis ATCC BAA-935) was 0.5 µg/mL (≈ 1.48 µM). For the same compound, the MIC [3] was 1 µg/mL (≈ 2.96 µM), the MIC (M. caprae ATCC BAA-824) was 0.25 µg/mL (≈ 0.741 µM) and the MIC [4] was 0.5 µg/mL (≈ 1.48 µM). It also gave an MIC (M. microti ATCC 11152) of 0.5 µg/mL (≈ 1.48 µM), an MIC [5] of 1 µg/mL (≈ 2.96 µM) and an MIC [6] of 0.5 µg/mL (≈ 1.48 µM). The MIC [7] was 1 µg/mL (≈ 2.96 µM), the MIC [8] was 1 µg/mL (≈ 2.96 µM) and the MIC (M. africanum ATCC 25420) was 0.5 µg/mL (≈ 1.48 µM).

COc1c(N2C[C@@H]3CCCN[C@@H]3C2)c(F)cc2c(=O)c(C(=O)O)cn(C3CC3)c12 [MXF, moxifloxacin] gave an MIC [1, 12] of 0.25 µg/mL (≈ 0.623 µM), an MIC [2, 13] of 0.25 µg/mL (≈ 0.623 µM) and an MIC (M. bovis ATCC BAA-935) of 0.13 µg/mL (≈ 0.324 µM). The MIC [3, 12] was 0.25 µg/mL (≈ 0.623 µM), the MIC (M. caprae ATCC BAA-824; [14]) was 0.063 µg/mL (≈ 0.157 µM) and the MIC [4, 12] was 0.25 µg/mL (≈ 0.623 µM). It also gave an MIC (M. microti ATCC 11152; [15]) of 0.063 µg/mL (≈ 0.157 µM), an MIC [5, 12] of 0.5 µg/mL (≈ 1.25 µM) and an MIC [6, 12] of 0.5 µg/mL (≈ 1.25 µM). The MIC [7, 16] was 0.5 µg/mL (≈ 1.25 µM), the MIC [8, 17] was 0.13 µg/mL (≈ 0.324 µM) and the MIC (M. africanum ATCC 25420; [18]) was 0.25 µg/mL (≈ 0.623 µM).

For CO[C@H]1/C=C/O[C@@]2(C)Oc3c(C)c(O)c4c(O)c(c(/C=N/N5CCN(C)CC5)c(O)c4c3C2=O)NC(=O)/C(C)=C\C=C\[C@H](C)[C@H](O)[C@@H](C)[C@@H](O)[C@@H](C)[C@H](OC(C)=O)[C@@H]1C [RIF, rifampin], the MIC [1] was > 16 µg/mL, the “bactericidal activity against intracellular bacilli” value (“bactericidal activity” below) [10] was “killed the intracellular bacilli” and the IC90 ([10]; Mycobacterium tuberculosis, H37RV, THP-1, read-out: 90% inhibitory concentration (IC90)) was 1.15 µg/mL (≈ 1.4 µM). For the same compound, the MIC [2] was 0.5 µg/mL (≈ 0.608 µM), the MIC (M. bovis ATCC BAA-935) was 0.063 µg/mL (≈ 0.0766 µM) and the MIC [3] was 0.5 µg/mL (≈ 0.608 µM). For the same compound, the MIC (M. caprae ATCC BAA-824) was 0.13 µg/mL (≈ 0.158 µM), the MIC [4] was 0.25 µg/mL (≈ 0.304 µM) and the MIC (M. microti ATCC 11152) was 0.13 µg/mL (≈ 0.158 µM). For the same compound, the MIC [5] was 1 µg/mL (≈ 1.22 µM), the MIC [6] was 0.25 µg/mL (≈ 0.304 µM) and the MIC [7] was 0.25 µg/mL (≈ 0.304 µM). For the same compound, the MIC [8] was 0.25 µg/mL (≈ 0.304 µM), the MIC (M. africanum ATCC 25420) was 0.25 µg/mL (≈ 0.304 µM) and the “bactericidal activity” value [11] was “killed the intracellular bacilli”. The IC90 ([11]; Mycobacterium tuberculosis, THP-1, read-out: 90% inhibitory concentration (IC90)) was 0.565 µg/mL (≈ 0.686 µM).

For [H]/N=C(/N)N[C@H]1[C@H](O)[C@@H](O)[C@H](O[C@@H]2O[C@@H](C)[C@](O)(C=O)[C@H]2O[C@@H]2O[C@@H](CO)[C@H](O)[C@@H](O)[C@@H]2NC)[C@@H](N/C(N)=N\[H])[C@@H]1O [STR, streptomycin], the “bactericidal activity” value ([10]; H37Rv in THP-1-derived macrophage-like cells, 3 days) was “no bactericidal activity” and the “bactericidal activity” value ([11]; Kurono in THP-1-derived macrophage-like cells, 3 days) was “no bactericidal activity”.
